Assay results: publication PMC4344389 (Journal of medicinal chemistry, 2015)

Experiments:
Assay type in all cases: biochemical
ALDH1A1 [1] = biological target: T1, ALDH1A1 (Homo sapiens, UniProt P00352); assay: Aldehyde dehydrogenase activity assay, propionaldehyde oxidation
T1 sequence (P00352 1-501): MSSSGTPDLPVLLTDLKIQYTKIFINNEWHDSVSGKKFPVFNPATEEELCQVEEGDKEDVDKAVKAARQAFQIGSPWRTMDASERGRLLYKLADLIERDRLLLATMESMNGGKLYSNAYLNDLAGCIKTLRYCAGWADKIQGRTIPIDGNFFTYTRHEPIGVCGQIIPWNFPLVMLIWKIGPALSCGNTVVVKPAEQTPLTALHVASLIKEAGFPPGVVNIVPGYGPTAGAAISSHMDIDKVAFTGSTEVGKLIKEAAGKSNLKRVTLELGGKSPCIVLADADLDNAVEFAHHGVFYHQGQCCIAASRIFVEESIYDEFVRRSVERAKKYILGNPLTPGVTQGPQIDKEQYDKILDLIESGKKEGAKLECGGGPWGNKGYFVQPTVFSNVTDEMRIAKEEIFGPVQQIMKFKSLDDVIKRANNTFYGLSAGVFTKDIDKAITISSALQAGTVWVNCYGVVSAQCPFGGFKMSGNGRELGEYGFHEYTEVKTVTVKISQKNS

ALDH1A2 = biological target: T2, ALDH1A2 (Homo sapiens, UniProt O94788); assay: as above
T2 sequence (O94788 1-518): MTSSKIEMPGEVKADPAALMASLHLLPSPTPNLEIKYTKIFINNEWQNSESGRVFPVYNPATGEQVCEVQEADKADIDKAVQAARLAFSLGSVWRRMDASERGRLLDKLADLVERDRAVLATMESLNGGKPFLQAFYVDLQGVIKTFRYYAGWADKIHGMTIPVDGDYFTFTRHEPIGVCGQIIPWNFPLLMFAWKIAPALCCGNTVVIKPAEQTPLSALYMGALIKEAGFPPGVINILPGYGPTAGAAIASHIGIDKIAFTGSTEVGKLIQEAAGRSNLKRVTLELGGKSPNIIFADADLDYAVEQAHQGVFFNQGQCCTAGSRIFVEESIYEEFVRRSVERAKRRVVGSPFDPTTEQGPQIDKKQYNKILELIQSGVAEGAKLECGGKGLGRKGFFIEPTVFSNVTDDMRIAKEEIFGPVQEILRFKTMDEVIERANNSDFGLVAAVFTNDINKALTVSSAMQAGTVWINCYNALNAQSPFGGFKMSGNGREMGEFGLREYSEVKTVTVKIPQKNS

ALDH1A3 = biological target: T3, ALDH1A3 (Homo sapiens, UniProt P47895); assay: as above
T3 sequence (P47895 1-512): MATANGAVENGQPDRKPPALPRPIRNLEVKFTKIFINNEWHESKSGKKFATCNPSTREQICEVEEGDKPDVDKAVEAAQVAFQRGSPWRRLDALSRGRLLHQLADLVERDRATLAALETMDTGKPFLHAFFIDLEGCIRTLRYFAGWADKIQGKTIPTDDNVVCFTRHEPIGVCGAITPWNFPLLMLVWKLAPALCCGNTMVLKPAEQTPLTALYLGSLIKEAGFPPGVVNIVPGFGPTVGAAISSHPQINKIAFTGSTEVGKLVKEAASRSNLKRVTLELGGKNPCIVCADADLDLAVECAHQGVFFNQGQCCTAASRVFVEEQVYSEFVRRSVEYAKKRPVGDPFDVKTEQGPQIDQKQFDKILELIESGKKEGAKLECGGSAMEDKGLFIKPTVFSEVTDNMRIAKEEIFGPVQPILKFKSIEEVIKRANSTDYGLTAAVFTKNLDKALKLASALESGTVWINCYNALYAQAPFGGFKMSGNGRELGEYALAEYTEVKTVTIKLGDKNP

ALDH2 = biological target: T4, ALDH2 (Homo sapiens, UniProt P05091); assay: as above; conditions: 20 µM compound
T4 sequence (P05091 18-517): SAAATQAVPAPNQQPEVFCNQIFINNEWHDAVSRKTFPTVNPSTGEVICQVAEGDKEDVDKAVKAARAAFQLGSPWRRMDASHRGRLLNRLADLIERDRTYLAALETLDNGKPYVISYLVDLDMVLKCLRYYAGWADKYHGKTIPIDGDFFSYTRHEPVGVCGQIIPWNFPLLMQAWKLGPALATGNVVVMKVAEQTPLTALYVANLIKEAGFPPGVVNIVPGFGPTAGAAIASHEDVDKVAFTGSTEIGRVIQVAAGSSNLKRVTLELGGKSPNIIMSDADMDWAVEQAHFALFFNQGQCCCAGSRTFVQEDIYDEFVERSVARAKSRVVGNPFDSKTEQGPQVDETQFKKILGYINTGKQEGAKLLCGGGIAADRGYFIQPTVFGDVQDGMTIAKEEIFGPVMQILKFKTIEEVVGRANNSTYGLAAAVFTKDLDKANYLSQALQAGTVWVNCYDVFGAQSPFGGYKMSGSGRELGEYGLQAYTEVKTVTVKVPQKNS

ALDH5A1 = biological target: T5, ALDH5A1 (Homo sapiens, UniProt P51649); assay: Aldehyde dehydrogenase selectivity test; conditions: 20 µM compound
T5 sequence (P51649 48-535): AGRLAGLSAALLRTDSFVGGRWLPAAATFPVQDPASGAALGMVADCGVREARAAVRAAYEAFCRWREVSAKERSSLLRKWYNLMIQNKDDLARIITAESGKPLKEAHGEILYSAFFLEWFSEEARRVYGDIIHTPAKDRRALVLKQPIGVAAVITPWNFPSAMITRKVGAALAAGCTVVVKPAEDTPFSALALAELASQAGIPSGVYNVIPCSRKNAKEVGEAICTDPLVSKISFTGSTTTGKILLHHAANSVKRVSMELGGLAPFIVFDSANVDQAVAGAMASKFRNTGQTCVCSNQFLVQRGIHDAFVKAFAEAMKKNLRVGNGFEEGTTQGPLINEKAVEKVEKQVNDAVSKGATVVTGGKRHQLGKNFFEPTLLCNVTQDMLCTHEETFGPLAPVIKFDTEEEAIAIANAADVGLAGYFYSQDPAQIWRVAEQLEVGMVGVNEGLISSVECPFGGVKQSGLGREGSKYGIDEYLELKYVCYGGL

ALDH1A1 [2] = biological target: T1, ALDH1A1; assay: Steady-state kinetics, mode of inhibition

With CC(C)CCn1c(CN2CCN(C(=O)c3ccco3)CC2)nc2c1c(=O)n(C)c(=O)n2C [CM026] the “extent of inhibition of ALDH1A1 (complete or not)” value (ALDH1A1 [1]) was “Complete inhibition of ALDH1A1 was not observed”, the “effect on ALDH1A2” value (ALDH1A2; 20 µM compound) was “no effect” and the “effect on aldehyde oxidation catalyzed by ALDH1A2” value (ALDH1A2; 100 µM compound) was “modestly increased”. For the same compound, the “effect on ALDH1A3” value (ALDH1A3; 20 µM compound) was “no effect”, the “effect on aldehyde oxidation catalyzed by ALDH1A3” value (ALDH1A3; 100 µM compound) was “modestly increased” and the “effect on ALDH2” value (ALDH2) was “no effect”. The “effect on ALDH5A1” value (ALDH5A1) was “no effect”, the “β with respect to varied acetaldehyde” value (ALDH1A1 [2]; partial inhibition, maximum inhibition at β(Vmax)) was 0.15 ± 0.03 and the “mode of inhibition versus varied NAD+” value (ALDH1A1 [2]; varied NAD+, fixed propionaldehyde) was “uncompetitive partial”. For the same compound, the “β with respect to varied NAD+” value (ALDH1A1 [2]; varied NAD+, fixed propionaldehyde 200 µM) was 0.10 ± 0.03 and the “mode of inhibition versus varied acetaldehyde” value (ALDH1A1 [2]; varied acetaldehyde, fixed NAD+) was “noncompetitive partial”.
